Consider nine compounds from PubChem BioAssay (NCI).

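Cultured in 96-well plates, cells were exposed to test compound for 48 hours across five concentrations. GI50 is the concentration that inhibits growth by half. Definition used: TGI = concentration required for complete inhibition of growth.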

Some test systems named below: OVCAR-4 ovarian; RPMI-8226 leukemia; HL-60(TB) leukemia; K-562 leukemia; MDA-MB-435; HT29 colon; HS 578T breast; UACC-62 melanoma; SF-295 CNS; IGROV1 ovarian.
What all share (test): growth of human tumour cells (NCI), 48 h

Regarding `COc1ccc(-c2nn3c(-c4cc(F)c(Cl)cc4Cl)nnc3s2)cc1`, the GI50 is 23.5 µM with OVCAR-4 ovarian; 19.6 µM with RPMI-8226 leukemia; 15.6 µM with HL-60(TB) leukemia; 5.13 µM with K-562 leukemia; 4.86 µM in the assay on MDA-MB-435; 18.5 µM in the assay with HT29 colon. Besides, the GI50 is 43.3 µM in the assay with HS 578T breast, 21.8 µM with UACC-62 melanoma and 16.2 µM in the assay on SF-295 CNS. The TGI in the assay with OVCAR-4 ovarian is 87.4 µM; in the assay with RPMI-8226 leukemia, 52.7 µM; in the assay on HL-60(TB) leukemia it was 43.9 µM; in the assay with K-562 leukemia, 44.7 µM; in the assay with MDA-MB-435, more than 100 µM; in the assay on HT29 colon, 44.3 µM. For the same compound, the results for the TGI in the assay on HS 578T breast, with UACC-62 melanoma and in the assay with SF-295 CNS were more than 100 µM, more than 100 µM and 65.3 µM, respectively.
`COc1ccc2c(c1)/C(=C\c1c(C)nc3sccn13)C(=O)N2`: the GI50 in the assay with OVCAR-4 ovarian was 4.01 µM; in the assay with HL-60(TB) leukemia, 0.136 µM; with K-562 leukemia, 0.0956 µM; in the assay with HS 578T breast it was 0.224 µM; with UACC-62 melanoma, less than 0.0356 µM; in the assay with IGROV1 ovarian, less than 0.0252 µM. Further, the GI50 in the assay with SF-295 CNS is less than 0.0466 µM. Further, the TGI is more than 100 µM in the assay with OVCAR-4 ovarian; more than 26.4 µM in the assay on RPMI-8226 leukemia; 0.534 µM with HL-60(TB) leukemia; more than 100 µM with K-562 leukemia; more than 100 µM in the assay on HT29 colon; 15.2 µM in the assay on HS 578T breast. For the same compound, the TGI with UACC-62 melanoma amounted to 3.35 µM; in the assay on IGROV1 ovarian, 3.69 µM.
Regarding `CCCCCCCCCCCCCCCCN1CC2CCCCC2C1` (stereo unspecified), the GI50 in the assay on OVCAR-4 ovarian is 11.9 µM; with RPMI-8226 leukemia, 1.97 µM; in the assay on K-562 leukemia, 3.54 µM; with MDA-MB-435, 8.57 µM; with HS 578T breast it was 11.8 µM; in the assay on UACC-62 melanoma, 8.1 µM. Further, the GI50 in the assay with IGROV1 ovarian is 3.58 µM; in the assay on SF-295 CNS, 14.6 µM. Moreover, the TGI with OVCAR-4 ovarian was determined as 25.9 µM; with RPMI-8226 leukemia, 4.06 µM; in the assay on K-562 leukemia, 11.2 µM; in the assay with MDA-MB-435 it was 24.3 µM; with HS 578T breast, 30.5 µM; in the assay on UACC-62 melanoma, 21.1 µM. Besides, the TGI is 12.2 µM in the assay on IGROV1 ovarian and 37 µM in the assay with SF-295 CNS.
Turning to `CN(C)CCCNC(CC#N)CCC#N` (stereo unspecified), the TGI in the assay with OVCAR-4 ovarian, in the assay on HL-60(TB) leukemia, in the assay with K-562 leukemia, in the assay with MDA-MB-435, in the assay with HT29 colon and in the assay with HS 578T breast was more than 10 µM throughout. Besides, the TGI in the assay on UACC-62 melanoma, in the assay with IGROV1 ovarian and in the assay on SF-295 CNS was more than 10 µM each time.
As to `COc1ccc(-c2ccc(/C=N/n3c(COc4ccc(Cl)cc4Cl)nn(CN4CCOCC4)c3=S)o2)c([N+](=O)[O-])c1`, the GI50 is 21.7 µM with OVCAR-4 ovarian; 12.7 µM in the assay with RPMI-8226 leukemia; 19.1 µM with HL-60(TB) leukemia; 18.2 µM in the assay on K-562 leukemia; 18.6 µM in the assay on MDA-MB-435; 42 µM in the assay with HT29 colon. Besides, the GI50 was 87.6 µM in the assay on UACC-62 melanoma and 17.4 µM in the assay on SF-295 CNS. Also, the TGI was 78.8 µM in the assay on OVCAR-4 ovarian; 40.1 µM in the assay on RPMI-8226 leukemia; 41.1 µM in the assay on HL-60(TB) leukemia; 46.6 µM in the assay with K-562 leukemia; 51.5 µM in the assay on MDA-MB-435; more than 100 µM with HT29 colon. In addition, the results for the TGI in the assay with UACC-62 melanoma and in the assay with SF-295 CNS were more than 100 µM and 46.9 µM, respectively.
As to `COc1ccc(-c2n/c(=C\c3c(O)[nH]c4ccc(OC)cc34)cc3c2=Nc2ccccc2-3)cc1`, the GI50 in the assay with RPMI-8226 leukemia is 3.21 µM; in the assay with HL-60(TB) leukemia it was 10.3 µM; in the assay on HS 578T breast it was 1.94 µM; in the assay with IGROV1 ovarian it was 12 µM; in the assay with SF-295 CNS, 3.9 µM. Also, the TGI in the assay on RPMI-8226 leukemia is 37.3 µM; with HL-60(TB) leukemia, 32.5 µM; with HS 578T breast, 4.82 µM; with IGROV1 ovarian, more than 100 µM; in the assay with SF-295 CNS, 24.1 µM.
For the compound `N#Cc1c(N2CCCC2)[nH]c(=O)c(C(c2c(Cl)cccc2Cl)c2c(O)c(C#N)c(N3CCCC3)[nH]c2=O)c1O`, the GI50 was 17.5 µM in the assay with OVCAR-4 ovarian; 2.54 µM with RPMI-8226 leukemia; 27.4 µM in the assay with K-562 leukemia; 9.6 µM in the assay with MDA-MB-435; 15.8 µM in the assay with HT29 colon; 2.75 µM in the assay on HS 578T breast. Moreover, the GI50 is 4.71 µM in the assay with UACC-62 melanoma, 19 µM in the assay with IGROV1 ovarian and 18.7 µM with SF-295 CNS. The TGI is 33.7 µM in the assay on OVCAR-4 ovarian; 18.4 µM in the assay with RPMI-8226 leukemia; more than 100 µM in the assay on K-562 leukemia; 25.2 µM with MDA-MB-435; 35.5 µM in the assay with HT29 colon; 19.1 µM in the assay on HS 578T breast. For the same compound, the values for the TGI with UACC-62 melanoma, in the assay on IGROV1 ovarian and in the assay on SF-295 CNS were 20.5 µM, 56.5 µM and 37.4 µM, respectively.
As for `COc1ccc(/C=C2\CCCC3=C2N=C2SC(C)=NN2C3c2ccc(OC)c(OC)c2)cc1OC` (stereo unspecified), the GI50 in the assay on HL-60(TB) leukemia is 3.97 µM; with K-562 leukemia it was 3.98 µM; in the assay with MDA-MB-435, 3.27 µM; in the assay with HT29 colon, 11.1 µM; in the assay with HS 578T breast, 30.4 µM; in the assay with UACC-62 melanoma it was 4.68 µM. Besides, the GI50 in the assay on IGROV1 ovarian is 18.4 µM; with SF-295 CNS, 14.8 µM. Besides, the TGI was 36 µM in the assay with HL-60(TB) leukemia; more than 100 µM in the assay with K-562 leukemia; 69.3 µM with MDA-MB-435; 90.1 µM with HT29 colon; more than 100 µM in the assay on HS 578T breast; 45.6 µM with UACC-62 melanoma. Also, the TGI in the assay with IGROV1 ovarian is 93.8 µM; with SF-295 CNS, more than 100 µM.
In the case of `Nc1nc2c(c3ncncc13)C(c1cccc(C(F)(F)F)c1)Cc1ncncc1-2` (stereo unspecified), the GI50 was 10.8 µM with OVCAR-4 ovarian; 5.33 µM in the assay on RPMI-8226 leukemia; 3.44 µM in the assay with HL-60(TB) leukemia; 3.74 µM in the assay on K-562 leukemia; 4.2 µM in the assay with HT29 colon; 4.71 µM in the assay with HS 578T breast. Moreover, the GI50 in the assay with UACC-62 melanoma is 3.86 µM; in the assay on IGROV1 ovarian, 8.06 µM; in the assay on SF-295 CNS it was 2.99 µM. The TGI in the assay on OVCAR-4 ovarian was more than 100 µM; with RPMI-8226 leukemia, 43.8 µM; in the assay with HL-60(TB) leukemia, 14.1 µM; in the assay with K-562 leukemia, 22.8 µM; in the assay on HT29 colon, 15.9 µM; in the assay on HS 578T breast, 45.9 µM. Also, the TGI in the assay with UACC-62 melanoma was 17.6 µM; in the assay on IGROV1 ovarian, 74.9 µM; in the assay with SF-295 CNS, 10.7 µM.
